Reference: patent publication US10450275B2, “Compounds and methods for treating cancer, neurological disorders, ethanol withdrawal, anxiety, depression, and neuropathic pain” (Board of Regents, The University of Texas System, priority 2013, dated 2019)
Values joined by “and” are separate entries in the source; they are usually repeats but may differ in a detail not shown here. Identical values can stand only once. Like-named read-outs stand apart in the source and are kept apart here.

What was measured:
[1] = target: serotonin 5A receptor (5HTR5A) (Homo sapiens, UniProt P47898); assay: serotonin 5A receptor (5HTR5A) inverse agonist activity; assay type: cell-based; conditions: 9.3 μM
[2] = test system: Y. pestis topoisomerase I; assay type: biochemical; conditions: 10 μM
[3] = target: T1, human M1 muscarinic receptor (Homo sapiens, UniProt P11229); assay: human M1 muscarinic receptor antagonist activity; assay type: cell-based; conditions: 3 μM
T1 sequence (P11229 1-460): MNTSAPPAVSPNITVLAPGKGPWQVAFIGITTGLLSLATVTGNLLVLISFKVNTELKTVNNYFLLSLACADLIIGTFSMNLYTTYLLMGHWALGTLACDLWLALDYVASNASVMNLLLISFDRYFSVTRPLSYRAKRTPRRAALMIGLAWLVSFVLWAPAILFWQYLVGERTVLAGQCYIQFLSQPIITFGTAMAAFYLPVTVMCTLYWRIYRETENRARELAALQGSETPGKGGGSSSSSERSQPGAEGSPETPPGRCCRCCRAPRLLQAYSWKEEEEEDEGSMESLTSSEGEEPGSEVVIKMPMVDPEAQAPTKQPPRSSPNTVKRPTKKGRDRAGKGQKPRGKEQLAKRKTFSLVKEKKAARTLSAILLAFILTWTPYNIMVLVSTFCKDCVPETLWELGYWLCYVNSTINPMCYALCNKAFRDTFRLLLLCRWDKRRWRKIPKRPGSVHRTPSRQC

[4] = target: T2, microphthalmia-associated transcription factor (MITF) (Homo sapiens, UniProt O75030); assay: microphthalmia-associated transcription factor (MITF) activation; assay type: cell-based; conditions: read-out: Potency (AC40), microphthalmia-associated transcription factor (MITF) activator
T2 sequence (O75030 1-526): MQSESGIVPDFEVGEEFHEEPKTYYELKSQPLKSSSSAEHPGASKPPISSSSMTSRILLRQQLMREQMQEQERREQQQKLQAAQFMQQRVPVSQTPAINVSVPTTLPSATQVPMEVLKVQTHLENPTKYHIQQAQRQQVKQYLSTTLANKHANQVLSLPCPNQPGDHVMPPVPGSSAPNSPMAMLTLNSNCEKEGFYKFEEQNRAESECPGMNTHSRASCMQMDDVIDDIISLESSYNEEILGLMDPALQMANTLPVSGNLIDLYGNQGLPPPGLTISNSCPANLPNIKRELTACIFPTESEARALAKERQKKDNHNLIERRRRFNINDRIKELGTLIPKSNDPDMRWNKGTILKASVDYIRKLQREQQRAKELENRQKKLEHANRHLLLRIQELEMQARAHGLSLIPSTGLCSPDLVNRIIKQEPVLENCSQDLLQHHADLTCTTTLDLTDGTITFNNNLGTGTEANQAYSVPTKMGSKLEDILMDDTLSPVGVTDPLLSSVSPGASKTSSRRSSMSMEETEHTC

[5] = target: T3, striatal-enriched protein tyrosine phosphatase (STEP) (Homo sapiens, UniProt P54829); assay: striatal-enriched protein tyrosine phosphatase (STEP) inhibition; assay type: biochemical; conditions: read-out: Potency, striatal-enriched protein tyrosine phosphatase (STEP) inhibitor
T3 sequence (P54829 1-565): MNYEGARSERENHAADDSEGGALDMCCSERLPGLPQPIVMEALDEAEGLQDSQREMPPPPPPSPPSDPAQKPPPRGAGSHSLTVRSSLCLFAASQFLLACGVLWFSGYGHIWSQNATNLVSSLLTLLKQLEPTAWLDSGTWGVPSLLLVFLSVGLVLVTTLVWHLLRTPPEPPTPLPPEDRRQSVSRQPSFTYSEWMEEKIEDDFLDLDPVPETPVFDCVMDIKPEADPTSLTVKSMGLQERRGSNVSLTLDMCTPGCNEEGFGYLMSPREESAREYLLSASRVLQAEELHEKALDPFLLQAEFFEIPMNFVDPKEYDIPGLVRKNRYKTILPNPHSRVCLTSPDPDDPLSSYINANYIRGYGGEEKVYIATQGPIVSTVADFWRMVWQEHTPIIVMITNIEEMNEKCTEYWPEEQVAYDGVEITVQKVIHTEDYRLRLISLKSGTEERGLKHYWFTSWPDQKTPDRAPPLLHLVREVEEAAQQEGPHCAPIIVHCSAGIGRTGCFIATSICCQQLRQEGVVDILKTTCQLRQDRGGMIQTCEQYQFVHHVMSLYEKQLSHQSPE

fatty acid synthase = fatty acid synthase (Homo sapiens, UniProt P49327); assay: fatty acid synthase inhibition; assay type: biochemical; conditions: read-out: Potency, fatty acid synthase inhibitor
[6] = Blood brain barrier permeability / brain concentration and brain clearance of JJS-1-166 in mice; assay type: in vivo, C57Bl/6j mice; conditions: time point 24 h, individual animals
[7] = as above; assay type: in vivo, C57Bl/6j mice; conditions: for brain exposure / concentration at 3 h: mouse; for concentration at 3 h: male, C57Bl/6j, brain, 10 mg/kg
Description: (§1) FIG. 1. Nine C57Bl/6j male mice (2-3 months old). Prior to PK evaluation, 3 animals were dosed with vehicle and were used to identify the standard curve using liquid chromatography-mass spectrometry (LC-MS) and as controls. Animals were randomized into 3 groups (n=3 per group). One group dosed Intravenously (IV), one group orally (PO), and one group subcutaneously (SC) with 10 mg/kg of the compound. From each animal blood will be collected 5 times: baseline (before the single dose); 5 minute; 30 minute; 1 hour; 3 hour after the single dose of the compound. (The first 4 collections are retro-orbital and the last one is terminal together with collection of the brain. Brain and blood will be flash frozen in liquid nitrogen and kept in −80° C. for later analysis. The concentration of compounds in the blood samples and brain tissues will be measured using LC-MS method.) FIG. 6. 3 day brain clearance study. A C57Bl/6j mouse was treated with 10 mg/kg JJS-1-166. After 3 days, the level of JJS-1-166 in the brain was assessed to ensure that all or a majority of the drug had been cleared. We determined the blood brain barrier (BBB) permeability and pharmacokinetic (PK) profile of JJS-1-166 (phase I), and subsequently investigated the efficacy of JJS-1-166 in an Alzheimer's disease (AD) mouse model. LC-MS/MS Method Development for Compound JJS-1-166 [table] [table]

[8] = Pharmacokinetic profile of JJS-1-166 in mice (plasma, LC-MS); assay type: in vivo, C57Bl/6j mice; conditions: for bioavailability: relative to the area under the curve for IV administration
Description: as §1, with “From each animal blood will be collected 5 times: baseline (before the single dose); 5 minute; 30 minute; 1 hour; 3 hour after the single dose of the compound.” left out, “method.)” for “method.) FIG. 6. 3 day brain clearance study. A C57Bl/6j mouse was treated with 10 mg/kg JJS-1-166. After 3 days, the level of JJS-1-166 in the brain was assessed to ensure that all or a majority of the drug had been cleared.”

[9] = target: mycobacterium tuberculosis bioA enzyme (Mycobacterium tuberculosis, UniProt P9WQ81); assay: mycobacterium tuberculosis bioA enzyme inhibition; assay type: biochemical; conditions: read-out: Potency, mycobacterium tuberculosis bioA enzyme inhibitor
[10] = time point 3 h, individual animals
[11] = time point 72 h, individual animals

Chain of fatty acid synthase (P49327 whole entry): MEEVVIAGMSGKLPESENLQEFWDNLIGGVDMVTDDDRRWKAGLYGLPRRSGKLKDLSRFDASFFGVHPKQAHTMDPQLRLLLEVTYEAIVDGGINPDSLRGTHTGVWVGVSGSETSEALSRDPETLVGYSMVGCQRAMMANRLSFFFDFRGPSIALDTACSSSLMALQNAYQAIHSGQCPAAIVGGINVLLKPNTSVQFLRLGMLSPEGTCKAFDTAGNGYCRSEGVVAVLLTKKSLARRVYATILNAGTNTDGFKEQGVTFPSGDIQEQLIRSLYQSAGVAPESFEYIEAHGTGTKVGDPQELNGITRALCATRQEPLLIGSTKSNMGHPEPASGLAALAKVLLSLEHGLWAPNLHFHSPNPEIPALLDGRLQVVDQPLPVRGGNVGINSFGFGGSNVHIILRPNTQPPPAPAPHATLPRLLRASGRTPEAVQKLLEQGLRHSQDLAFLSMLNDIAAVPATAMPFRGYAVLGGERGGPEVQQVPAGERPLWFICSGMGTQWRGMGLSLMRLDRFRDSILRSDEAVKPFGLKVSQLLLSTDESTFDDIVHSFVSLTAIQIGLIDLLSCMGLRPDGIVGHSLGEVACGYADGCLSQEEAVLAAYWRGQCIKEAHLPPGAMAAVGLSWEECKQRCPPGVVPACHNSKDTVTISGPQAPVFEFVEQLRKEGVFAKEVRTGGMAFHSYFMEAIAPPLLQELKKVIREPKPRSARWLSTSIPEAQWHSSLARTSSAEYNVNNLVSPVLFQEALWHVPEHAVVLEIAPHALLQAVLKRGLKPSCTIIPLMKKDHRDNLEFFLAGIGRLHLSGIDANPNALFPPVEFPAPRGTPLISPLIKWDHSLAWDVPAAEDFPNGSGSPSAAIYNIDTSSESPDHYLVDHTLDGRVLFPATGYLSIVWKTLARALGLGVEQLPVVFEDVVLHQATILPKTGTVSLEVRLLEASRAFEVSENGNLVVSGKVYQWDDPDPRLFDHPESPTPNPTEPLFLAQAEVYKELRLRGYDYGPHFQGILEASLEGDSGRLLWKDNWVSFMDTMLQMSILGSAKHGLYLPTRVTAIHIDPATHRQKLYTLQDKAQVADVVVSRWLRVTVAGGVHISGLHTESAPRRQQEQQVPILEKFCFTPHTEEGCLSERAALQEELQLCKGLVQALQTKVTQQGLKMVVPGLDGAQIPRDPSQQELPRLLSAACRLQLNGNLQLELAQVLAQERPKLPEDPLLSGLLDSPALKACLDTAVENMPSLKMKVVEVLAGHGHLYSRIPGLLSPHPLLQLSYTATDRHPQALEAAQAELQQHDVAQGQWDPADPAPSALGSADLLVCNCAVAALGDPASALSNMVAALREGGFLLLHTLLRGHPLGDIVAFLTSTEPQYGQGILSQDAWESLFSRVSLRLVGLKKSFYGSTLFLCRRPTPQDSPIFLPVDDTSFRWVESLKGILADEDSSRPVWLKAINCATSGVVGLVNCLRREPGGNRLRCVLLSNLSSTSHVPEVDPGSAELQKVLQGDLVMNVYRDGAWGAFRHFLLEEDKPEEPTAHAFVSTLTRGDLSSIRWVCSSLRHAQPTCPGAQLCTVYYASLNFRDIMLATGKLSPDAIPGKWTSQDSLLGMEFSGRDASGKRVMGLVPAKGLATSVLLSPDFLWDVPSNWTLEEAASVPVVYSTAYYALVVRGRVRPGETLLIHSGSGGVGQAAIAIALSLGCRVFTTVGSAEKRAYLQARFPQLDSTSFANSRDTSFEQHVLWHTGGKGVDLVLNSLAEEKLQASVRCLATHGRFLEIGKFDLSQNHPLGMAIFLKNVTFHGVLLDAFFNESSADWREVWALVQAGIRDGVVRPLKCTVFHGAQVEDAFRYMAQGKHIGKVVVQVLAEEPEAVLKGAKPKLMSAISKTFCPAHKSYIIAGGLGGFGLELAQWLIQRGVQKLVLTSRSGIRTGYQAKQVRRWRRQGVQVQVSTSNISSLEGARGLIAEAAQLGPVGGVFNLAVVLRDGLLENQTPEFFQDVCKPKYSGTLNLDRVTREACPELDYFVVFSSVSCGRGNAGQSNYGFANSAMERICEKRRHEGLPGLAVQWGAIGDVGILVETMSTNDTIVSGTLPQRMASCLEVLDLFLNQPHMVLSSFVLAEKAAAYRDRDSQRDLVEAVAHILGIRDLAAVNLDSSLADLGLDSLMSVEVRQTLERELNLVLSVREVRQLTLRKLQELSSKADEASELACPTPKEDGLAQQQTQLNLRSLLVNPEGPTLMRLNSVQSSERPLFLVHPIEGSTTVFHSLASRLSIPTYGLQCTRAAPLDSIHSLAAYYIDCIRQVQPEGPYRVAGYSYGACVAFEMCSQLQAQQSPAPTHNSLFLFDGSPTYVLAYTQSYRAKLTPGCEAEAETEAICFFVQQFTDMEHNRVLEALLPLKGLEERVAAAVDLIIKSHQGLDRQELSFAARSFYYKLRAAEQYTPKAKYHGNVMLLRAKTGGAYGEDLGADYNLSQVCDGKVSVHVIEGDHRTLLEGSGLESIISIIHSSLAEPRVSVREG
Chain of serotonin 5A receptor (5HTR5A) (P47898 whole entry): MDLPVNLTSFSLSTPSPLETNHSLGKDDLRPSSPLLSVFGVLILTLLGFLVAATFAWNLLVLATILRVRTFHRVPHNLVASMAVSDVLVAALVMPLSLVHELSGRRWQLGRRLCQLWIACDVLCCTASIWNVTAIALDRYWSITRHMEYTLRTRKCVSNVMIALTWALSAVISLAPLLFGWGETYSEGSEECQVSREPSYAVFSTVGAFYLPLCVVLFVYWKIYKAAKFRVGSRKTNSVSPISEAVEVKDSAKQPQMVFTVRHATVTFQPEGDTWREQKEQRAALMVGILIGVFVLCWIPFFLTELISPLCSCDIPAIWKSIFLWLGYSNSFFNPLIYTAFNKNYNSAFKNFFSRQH
Chain of mycobacterium tuberculosis bioA enzyme (P9WQ81 whole entry): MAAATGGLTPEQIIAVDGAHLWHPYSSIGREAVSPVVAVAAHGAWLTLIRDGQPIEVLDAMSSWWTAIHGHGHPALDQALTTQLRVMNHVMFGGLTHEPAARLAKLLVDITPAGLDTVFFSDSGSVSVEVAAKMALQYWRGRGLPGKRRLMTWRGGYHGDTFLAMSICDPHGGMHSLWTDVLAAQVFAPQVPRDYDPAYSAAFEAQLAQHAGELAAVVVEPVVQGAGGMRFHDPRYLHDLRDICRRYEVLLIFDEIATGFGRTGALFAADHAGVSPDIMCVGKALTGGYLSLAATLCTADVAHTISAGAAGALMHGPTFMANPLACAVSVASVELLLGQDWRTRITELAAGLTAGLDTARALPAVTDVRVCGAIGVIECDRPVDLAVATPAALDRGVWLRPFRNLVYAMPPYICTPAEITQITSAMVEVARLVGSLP

Compound: Clc1cccc(CN2CC[C@@H]3C[C@H]2c2cc(N4CCCCC4)ccc23)c1
- Potency, serotonin 5A receptor (5HTR5A) inverse agonist [1]: 27% (9.3 μM)

Compound: O=C(OCc1ccccc1)N1CC[C@@H]2C[C@H]1c1c(Cl)cccc12
- Potency, Y. pestis topoisomerase I inhibitor [2]: 61% (10 μM)

Compound: O=C(c1cc(Cl)cc(Cl)c1)N1CC[C@@H]2C[C@H]1c1cc(N3CCCCC3)ccc12
- Potency, human M1 muscarinic receptor antagonist [3]: 69% (3 μM)

Compound: CCCCNc1ccc2c(c1)[C@@H]1C[C@H]2CCN1C(=O)OCc1ccccc1
- EC40 [4]: 3.3 µM

Compound: N#Cc1ccc(C(=O)N2CC[C@@H]3C[C@H]2c2cc(-c4ccccc4)ccc23)cc1
- inhibition at 20 µM [5]: 69%

Compound: COc1ccc(S(=O)(=O)N2CC[C@@H]3C[C@H]2c2cc(N4CCOCC4)ccc23)cc1 (stereo in doubt) [30{2,2,30}, 4-(2-((4-Methoxyphenyl)sulfonyl)-2,3,4,5-tetrahydro-1H-1,5-methanobenzo[c]azepin-8-yl)morpholine]
- melting point: 176 to 177 °C

Compound: COc1ccc(NC(=S)N2CCN(c3ccc4c(c3)[C@@H]3CCN(C(=O)OCc5ccccc5)[C@H]4C3)CC2)c(OC)c1
- inhibition at 15 µM (fatty acid synthase): 57%

Compound: FC(F)(F)c1ccc(-c2ccc3c(c2)[C@@H]2C[C@H]3CCN2Cc2ccccc2)cc1 (stereo in doubt) [21{2,7}, 2-Benzyl-8-(4-(trifluoromethyl)phenyl)-2,3,4,5-tetrahydro-1H-1,5-methanobenzo[c]azepine]
- melting point: 101 to 103 °C

Compound: CN1CCN(c2ccc3c(c2)[C@H]2CC3CCN2C(=O)OCc2ccccc2)CC1 [JJS-1-166]
- concentration at 24 h ([6]; C57Bl/6j, mouse, brain, 10 mg/kg, read-out: Drug concentration in the Brain): 1.76 ng/g
- Drug concentration in the Brain [6]: 1.63 ng/g and 1.28 ng/g
- brain exposure ([7]; SC administration, 3 hours): high level of brain exposure
- concentration at 3 h ([7]; time point 3 h, individual animals, read-out: Drug concentration in the Brain): 1570 ng/g
- concentration at 3 h ([7]; sc, 3 hours after subcutaneous (SC) administration, read-out: brain concentration): 15 ng/mL
- brain exposure ([7]; overall statement): adequate brain exposure
- Drug concentration in the Brain [7, 10]: 1100.0 ng/g and 1840.0 ng/g
- Drug concentration in the Brain [7, 11]: No Peak
- concentration at 24 h ([8]; C57Bl/6j, mouse, plasma, time point 24 h, individual animals, read-out: Drug concentration in the Plasma): 0.14 ng/g
- plasma concentration (Cmax) ([8]; SC administration, 10 mg/kg, at 1 hour, mouse): greater than 300 ng/dL
- time for which detectable plasma levels were maintained ([8]; after SC, OP, and IV administration, mouse): greater than 150 minutes
- plasma concentration (Cmax) ([8]; intravenous (IV) administration, 10 mg/kg, at 5 minutes, mouse): greater than 1500 ng/dL
- concentration at 3 h ([8]; male, C57Bl/6j, mouse, plasma, 10 mg/kg, time point 3 h, individual animals, read-out: Drug concentration in the Plasma): 156 ng/g
- bioavailability ([8]; male, C57Bl/6j, plasma, oral, 10 mg/kg, mouse, read-out: OP bioavailability): 7%
- bioavailability ([8]; male, C57Bl/6j, plasma, subcutaneous, 10 mg/kg, mouse, read-out: SC bioavailability): 45%
- pharmacokinetic properties ([8]; mouse, overall statement): acceptable
- plasma concentration (Cmax) ([8]; oral (PO) administration, 10 mg/kg, at 30 min, mouse): greater than 60 ng/dL
- Drug concentration in the Plasma [8, 10]: 136.0 ng/g and 209.0 ng/g
- Drug concentration in the Plasma ([8]; time point 24 h, individual animals): 0.163 ng/g and 0.0913 ng/g
- Drug concentration in the Plasma [8, 11]: No Peak

Compound: COc1ccc(-c2ccc3c(c2)[C@@H]2C[C@H]3CCN2)cc1
- inhibition at 10 µM [9]: 91%
